The results in this text go back to patent publication EP2727911B1, “Novel means and methods for treating malaria and other parasitic disorders” (Medizinische Hochschule Hannover, priority 2012, dated 2014).

In general, IC50 refers to the point on the concentration scale where inhibition reaches its midpoint.

Each structure is given as a SMILES string. Structures can show the parent of a compound that is named as a salt.

This test has as its target T1, Dd myosin-1b (Dictyostelium discoideum, UniProt P34092).
T1 sequence (P34092 1-1111): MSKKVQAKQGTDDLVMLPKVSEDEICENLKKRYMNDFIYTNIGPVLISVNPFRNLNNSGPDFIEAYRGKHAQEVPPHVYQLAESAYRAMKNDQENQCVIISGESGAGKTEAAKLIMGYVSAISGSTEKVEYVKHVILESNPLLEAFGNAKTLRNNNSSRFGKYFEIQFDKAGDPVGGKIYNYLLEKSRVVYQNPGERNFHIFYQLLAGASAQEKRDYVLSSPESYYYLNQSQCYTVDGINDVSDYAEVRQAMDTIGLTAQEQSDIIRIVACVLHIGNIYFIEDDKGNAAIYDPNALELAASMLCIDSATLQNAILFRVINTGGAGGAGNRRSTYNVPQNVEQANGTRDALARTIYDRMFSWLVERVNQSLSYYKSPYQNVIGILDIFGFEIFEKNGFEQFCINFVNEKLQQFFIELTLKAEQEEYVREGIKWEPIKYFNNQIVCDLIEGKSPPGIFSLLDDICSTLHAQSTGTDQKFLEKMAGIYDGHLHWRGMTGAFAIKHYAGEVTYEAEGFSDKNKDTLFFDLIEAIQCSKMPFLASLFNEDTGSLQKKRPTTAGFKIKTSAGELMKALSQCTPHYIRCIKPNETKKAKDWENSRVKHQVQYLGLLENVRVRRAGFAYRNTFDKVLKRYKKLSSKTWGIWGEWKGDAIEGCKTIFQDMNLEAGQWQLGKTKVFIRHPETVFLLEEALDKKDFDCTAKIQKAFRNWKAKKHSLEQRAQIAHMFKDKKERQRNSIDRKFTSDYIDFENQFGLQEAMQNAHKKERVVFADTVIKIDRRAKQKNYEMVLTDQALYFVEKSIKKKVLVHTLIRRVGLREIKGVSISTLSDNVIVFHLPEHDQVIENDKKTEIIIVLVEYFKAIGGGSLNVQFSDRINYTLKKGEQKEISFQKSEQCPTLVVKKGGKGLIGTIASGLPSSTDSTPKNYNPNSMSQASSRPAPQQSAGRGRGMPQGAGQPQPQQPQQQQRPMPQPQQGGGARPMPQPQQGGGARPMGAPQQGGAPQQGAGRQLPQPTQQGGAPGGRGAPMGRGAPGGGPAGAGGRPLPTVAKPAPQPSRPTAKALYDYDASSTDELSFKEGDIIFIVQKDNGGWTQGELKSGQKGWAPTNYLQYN
Description: Actin-activated steady state ATPase assay (PK/LDH-coupled, photometric). The test is classed as biochemical. To be noted: in the presence of 30 µM F-actin, nonlinear regression. Here is the method:
In this assay, the ATPase activity of Dictyostelium discoideum myosin-1b is determined, preferably at a ligand concentration of 25µM. Furthermore, the IC50 concentration has been determined by measuring ATPase activity as a function of inhibitor concentration. Alternatively Dictyostelium discoideum myosin-2 can be used.
Actin-activated steady state ATPase experiments were performed following the absorbance change during NADH oxidation in a PK/LDH-coupled ATPase assay at 340 nm […] (Trentham (1972); Furch (1998)). The photometric steady state ATPase assay was applied to determine the potency of the small molecule compounds to inhibit the enzymatic activity of myosin. Dd myosin-1b was used as a model system for the target protein (Pf myosin A). All experiments were carried out in the presence of 30 µM F-actin and the corresponding half-maximal inhibitory concentrations (IC50) were determined by nonlinear regression.

In the case of `COC(=N)Cc1ccc(O)cc1` [BIP13, Methyl-2-(4-hydroxyphenyl)acetimidate·hydrochloride], the IC50 amounted to 8.07 ± 0.8 µM.
